Measurements published in patent publication US5656440A, “Nucleotide sequences coding for the bovine β3 -adrenergic receptor (ARβ3) and their applications” (Virbac, priority 1993, dated 1997).
Where two headings read alike, the source gives them in different places. One block for each compound: values may come before it.

Assays:
mouse ARβ3 receptor [1] = details: Mouse RAβ3-CHO; read-out: Binding Ki; cited from earlier work
β1 -, β2 - and β3 -AR = details: β1, β2, β3 subtypes; cited from earlier work
human ARβ3 receptor [2] = details: Human RAβ3-CHO; read-out: Binding Ki; cited from earlier work
bovine ARβ3 receptor [3] = biological target: T1, bovine ARβ3 receptor (Bos taurus, UniProt P46626); assay: competitive binding of ligands against [^125 I]cyanopindolol on intact CHO cells, bovine receptor (clone 62-26)
T1 construct: to liberate the 1598-base pair fragment containing the coding region of the bovine β3 gene; expressed in transfected cells
Procedure: Reaction is stopped by dilution with ice-cold PBS, the cells are filtered off and the radioactivity is measured in a gamma counter. The results were analysed using Graph-Pad.COPYRGT. software.

bovine ARβ3 receptor [4] = biological target: T1, bovine ARβ3 receptor; assay: adenylate cyclase activation (cAMP accumulation) in CHO cells, bovine receptor (clone 62-26); type: cell-based; set-up: Emax: dose or concentration left out as unconfirmed; details: for Emax: CHO; for Emax / Emax at 100 µM: 0.5 h, read-out: Accumul. cAMP IA (intrinsic activity)
Procedure: Briefly, preconfluent cells in six-well plates (0.6×10^6 cells/well) are placed in contact or otherwise with increasing doses of ligands for 30 minutes at 37° C. Reaction is stopped by washing in PBS at 4° C. and adding 500 μl of 1N NaOH. After centrifugation and neutralization with 1N acetic acid, the cell lysates are recovered and the total amount of cAMP accumulated is determined using a commercial assay kit.

mouse ARβ3 receptor [5] = details: cited from earlier work; for Accumul. cAMP IA (intrinsic activity) / EC50: Mouse RAβ3-CHO; for Accumul. cAMP IA (intrinsic activity): ratio of effect of ligand at 10^-4 M to effect of isoproterenol at 10^-4 M, 100 µM; for EC50: read-out: Accumul. cAMP Kact (adenylate cyclase activation constant); for functional character (agonist/antagonist): mouse ARβ3
human ARβ3 receptor [6] = details: cited from earlier work; for Accumul. cAMP IA (intrinsic activity) / EC50: Human RAβ3-CHO; for Accumul. cAMP IA (intrinsic activity): ratio of effect of ligand at 10^-4 M to effect of isoproterenol at 10^-4 M, 100 µM; for EC50: read-out: Accumul. cAMP Kact (adenylate cyclase activation constant); for functional character (agonist/antagonist): human ARβ3
bovine ARβ3 = assay: binding of [^125 I]cyanopindolol to transfected cells stably expressing ARβ3
From the text: Stable colonies are screened for their capacity to bind specifically to [^125 I]cyanopindolol and also for their capacity to stimulate adenylate cyclase in the presence of isoproterenol, in accordance with protocol described in TATE et al., Eur. J. Biochem., 191, 196, 357-361.

[7] = BovineRAβ3-CHO, 0.5 nM [^125 I]cyanopindolol, 30 minutes at 37° C., read-out: Binding Ki
[8] = BovineRAβ3-CHO, ratio of effect of ligand at 10^-4 M to effect of isoproterenol at 10^-4 M
[9] = BovineRAβ3-CHO, 30 minutes at 37° C., read-out: Accumul. cAMP Kact (adenylate cyclase activation constant)

T1 sequence (P46626 whole entry, the tested form may be a part): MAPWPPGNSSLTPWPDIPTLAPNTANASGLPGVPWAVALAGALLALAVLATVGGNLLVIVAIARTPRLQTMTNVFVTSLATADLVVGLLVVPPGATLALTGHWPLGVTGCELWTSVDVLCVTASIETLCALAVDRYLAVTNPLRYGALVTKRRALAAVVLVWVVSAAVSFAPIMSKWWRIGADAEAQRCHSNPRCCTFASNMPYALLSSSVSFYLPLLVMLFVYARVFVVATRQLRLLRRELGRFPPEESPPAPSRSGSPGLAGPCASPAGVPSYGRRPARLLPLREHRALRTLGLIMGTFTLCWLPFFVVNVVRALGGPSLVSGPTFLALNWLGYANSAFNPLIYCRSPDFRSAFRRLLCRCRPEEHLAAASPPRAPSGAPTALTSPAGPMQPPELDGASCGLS

Structure (SMILES): C[C@H](Cc1ccc(OCC(=O)O)cc1)NC[C@H](O)c1cccc(Cl)c1 (relative stereo) [BRL 37344]
Ki (mouse ARβ3 receptor [1]): 0.29 ± 0.136 µM
described agonist/antagonist class (β1 -, β2 - and β3 -AR): β1 -, β2 - and β3 -AR-receptor agonists
Ki (human ARβ3 receptor [2]): 0.287 ± 0.092 µM
Ki (bovine ARβ3 receptor [3]): 0.00213 ± 0.0014 µM
EC50 (bovine ARβ3 receptor [4]): 0.0003 µM
Emax (bovine ARβ3 receptor [4]): 84 ± 10%
Accumul. cAMP IA (intrinsic activity) (mouse ARβ3 receptor [5]): 1.07 ± 0.08
EC50 (mouse ARβ3 receptor [5]): 0.0004 ± 0.0001 µM
Accumul. cAMP IA (intrinsic activity) (human ARβ3 receptor [6]): 1.11 ± 0.12
EC50 (human ARβ3 receptor [6]): 0.015 ± 0.003 µM

Ki (bovine ARβ3 receptor [3]; [7]): 0.085 ± 0.04 µM
Emax at 100 µM (bovine ARβ3 receptor [4]; [8]): 34 ± 1%
EC50 (bovine ARβ3 receptor [4]; [9]): 0.507 µM
functional character (agonist/antagonist) (bovine ARβ3 receptor [4]; bovine ARβ3): partial agonist
Structure (SMILES): Cc1ccc(Cl)c(OCC(O)CNC(C)(C)C)c1 (single isomer, unassigned; (-)) [(-) bupranolol, bupranolol]
Ki (mouse ARβ3 receptor [1]): 0.042 ± 0.019 µM
described agonist/antagonist class (β1 -, β2 - and β3 -AR): antagonist of the three subtypes of receptor
Ki (human ARβ3 receptor [2]): 0.05 ± 0.014 µM
functional character (agonist/antagonist) (mouse ARβ3 receptor [5]): antagonist
functional character (agonist/antagonist) (mouse ARβ3 receptor [5]; listed as bupranolol): potent antagonist
functional character (agonist/antagonist) (human ARβ3 receptor [6]): antagonist
functional character (agonist/antagonist) (human ARβ3 receptor [6]; listed as bupranolol): potent antagonist

Structure (SMILES): CC(C)NCC(O)c1ccc(O)c(O)c1 (single isomer, unassigned; (-)) [(-) isproterenol, (-)-iso-proterenol]
described agonist/antagonist class (β1 -, β2 - and β3 -AR): β1 -, β2 - and β3 -AR-receptor agonists
Ki (human ARβ3 receptor [2]): 0.62 µM
Ki (bovine ARβ3 receptor [3]): 0.084 ± 0.081 µM
EC50 (bovine ARβ3 receptor [4]): 0.014 ± 0.002 µM
Emax (bovine ARβ3 receptor [4]): 90 ± 10%

Structure (SMILES): CNC[C@H](O)c1ccc(O)c(O)c1 [(- ) epinephrine, (-)-epinephrine]
Ki (mouse ARβ3 receptor [1]): 4.6 µM
described agonist/antagonist class (β1 -, β2 - and β3 -AR): β1 -, β2 - and β3 -AR-receptor agonists
Ki (human ARβ3 receptor [2]): 20.7 µM
Ki (bovine ARβ3 receptor [3]; [7]): 11.1 µM
EC50 (bovine ARβ3 receptor [4]; [9]): 0.0507 µM
Emax (bovine ARβ3 receptor [4]): 80 ± 30%
Accumul. cAMP IA (intrinsic activity) (mouse ARβ3 receptor [5]): 0.91 ± 0.03
EC50 (mouse ARβ3 receptor [5]): 0.023 ± 0.0003 µM
Accumul. cAMP IA (intrinsic activity) (human ARβ3 receptor [6]): 1.00 ± 0.04
EC50 (human ARβ3 receptor [6]): 0.049 ± 0.005 µM

Structure (SMILES): CC(C)NC[C@H](O)COc1cccc2ccccc12 [(- ) propranolol, (-)-propranolol]
functional character (agonist/antagonist) (mouse ARβ3 receptor [5]): antagonist
Accumul. cAMP IA (intrinsic activity) (human ARβ3 receptor [6]): 0.51 ± 0.12
functional character (agonist/antagonist) (human ARβ3 receptor [6]): partial agonist

Structure (SMILES): NC[C@H](O)c1ccc(O)c(O)c1 [(-) norepinephrine, (-)-norepinephrine]
Ki (mouse ARβ3 receptor [1]): 1.84 µM
described agonist/antagonist class (β1 -, β2 - and β3 -AR): β1 -, β2 - and β3 -AR-receptor agonists
Ki (human ARβ3 receptor [2]): 0.475 ± 0.075 µM
Ki (bovine ARβ3 receptor [3]): 0.423 ± 0.255 µM
EC50 (bovine ARβ3 receptor [4]): 0.054 ± 0.0043 µM
Emax (bovine ARβ3 receptor [4]): 100 ± 50%
Accumul. cAMP IA (intrinsic activity) (mouse ARβ3 receptor [5]): 1.06 ± 0.06
EC50 (mouse ARβ3 receptor [5]): 0.013 ± 0.004 µM
Accumul. cAMP IA (intrinsic activity) (human ARβ3 receptor [6]): 1.00
EC50 (human ARβ3 receptor [6]): 0.00632 ± 0.0007 µM

Ki (bovine ARβ3 receptor [3]; [7]): 0.073 ± 0.042 µM
Emax at 100 µM (bovine ARβ3 receptor [4]; [8]): 99 ± 10%
EC50 (bovine ARβ3 receptor [4]; [9]): 0.0128 µM
Structure (SMILES): CC(C)(Cc1c[nH]c2ccccc12)NCC(O)COc1ccccc1C#N (stereo not drawn) [Bucindolol, bucindolol]
Ki (mouse ARβ3 receptor [1]): 0.021 ± 0.005 µM
described agonist/antagonist class (β1 -, β2 - and β3 -AR): specific for the ARβ3 receptor (β1 -, β2 -AR antagonists)
Ki (human ARβ3 receptor [2]): 0.023 ± 0.01 µM
Accumul. cAMP IA (intrinsic activity) (mouse ARβ3 receptor [5]): 1.11 ± 0.06
EC50 (mouse ARβ3 receptor [5]): 0.04 ± 0.014 µM
Accumul. cAMP IA (intrinsic activity) (human ARβ3 receptor [6]): 1.01 ± 0.10
EC50 (human ARβ3 receptor [6]): 0.007 ± 0.0012 µM

Structure (SMILES): CC(C)(C)NCC(O)COc1cccc2[nH]c(=O)[nH]c12 (stereo not drawn) [CGP 12177A]
Ki (mouse ARβ3 receptor [1]): 0.152 ± 0.019 µM
described agonist/antagonist class (β1 -, β2 - and β3 -AR): specific for the ARβ3 receptor (β1 -, β2 -AR antagonists)
Ki (human ARβ3 receptor [2]): 0.088 ± 0.022 µM
Ki (bovine ARβ3 receptor [3]; [7]): 0.218 ± 0.161 µM
Emax at 100 µM (bovine ARβ3 receptor [4]; [8]): 93 ± 20%
EC50 (bovine ARβ3 receptor [4]; [9]): 0.00141 µM
Accumul. cAMP IA (intrinsic activity) (human ARβ3 receptor [6]): 0.68 ± 0.02
EC50 (human ARβ3 receptor [6]): 0.139 ± 0.044 µM

Ki (bovine ARβ3 receptor [3]; [7]): 0.0277 ± 0.024 µM
EC50 (bovine ARβ3 receptor [4]; [9]): 0.0011 µM
Accumul. cAMP IA (intrinsic activity) (bovine ARβ3 receptor [4]; BovineRAβ3-CHO, ratio of effect of ligand at 10^-4 M to effect of isoproterenol at 10^-4 M, 30 min, 100 µM): 0.85 ± 0.1
Structure (SMILES): O=C(O)COc1ccc(OCCNCC(O)COc2ccccc2)cc1 (stereo not drawn) [ICI 201651]
Ki (mouse ARβ3 receptor [1]): 0.239 ± 0.104 µM
described agonist/antagonist class (β1 -, β2 - and β3 -AR): specific for the ARβ3 receptor (β1 -, β2 -AR antagonists)
Ki (human ARβ3 receptor [2]): 0.085 ± 0.012 µM
Accumul. cAMP IA (intrinsic activity) (mouse ARβ3 receptor [5]): 1.02 ± 0.02
EC50 (mouse ARβ3 receptor [5]): 0.015 ± 0.001 µM
Accumul. cAMP IA (intrinsic activity) (human ARβ3 receptor [6]): 1.14 ± 0.14
EC50 (human ARβ3 receptor [6]): 0.02 ± 0.009 µM

Structure (SMILES): CC(C)(C)NCC(O)COc1cccc2[nH]c(C#N)c([125I])c12 (stereo not drawn) [[^125 I]cyanopindolol]
binding affinity compared to ARβ3 in man or in mouse (bovine ARβ3): affinity equivalent to that of the corresponding ARβ3 in man or in mouse
